Measured values published in PMC11467779, “New anti-ovarian cancer quinolone derivatives acting by modulating microRNA processing machinery” (RSC Medicinal Chemistry, 2024).

Assays:
[1] = Cytotoxicity against non-tumor Wi-38 cells (CC50, cell count); type: cell-based; conditions: human, Wi-38 cells (non-tumor), 50% cytotoxicity concentration, 72 hours of treatment
Description: (§1) SKOV-3, A2780 and A2780 CIS were cultured and maintained, as previously described,[50] at 37 °C in RPMI 1640 medium (Euroclone) supplemented with 10% fetal bovine serum (FBS; Euroclone), L-glutamine and penicillin/streptomycin (SIGMA-ALDRICH). OVCA433, HEK-293T, HeLa, HCCLM3, SK-Hep-1, MCF-7, A549 and HCT-116 cells were maintained in DMEM medium (Euroclone) containing 10% FBS (Euroclone), L-glutamine and penicillin/streptomycin (SIGMA-ALDRICH). Wi-38 cells were cultured in DMEM medium (Euroclone) supplemented with 10% FBS (Euroclone), L-glutamine and penicillin/streptomycin (SIGMA-ALDRICH), and 1% non-essential amino acids (NEAA; Euroclone). The cultures were maintained in a constant temperature incubator at 37 °C with 5% CO2. […] Once cell adhesion had been promoted, the compounds were added to the culture medium. After 72 hours of treatment, the cells were counted, and the data analyzed by linear regression. Each experiment was carried out three times in triplicate and three separate cell counts were made for each sample. […] Afterwards, the concentration range was narrowed to the relative value obtained in the first evaluation in order to obtain an accurate value.

A549 (lung carcinoma) = assay: Proliferation of A549 cells (trypan blue count); type: cell-based, human; conditions: 30 μM, 72 hours
Description: (§2) A2780 and SKOV-3 cells were treated with 50 μM of 33 for 72 h before RNA and protein extraction and expression analyses. A2780 and A2780 CIS were treated with 33 (30 μM) and/or cisplatin (1 μM, Sigma-Aldrich) for 48 hours while MCF-7, A549 and HCT-116 were treated with 33 (30 μM) for 72 hours. Total cell number and viability have been assessed using Trypan Blue Solution (Thermo Fisher Scientific) and Countess™ 3 Automated Cell Counter (Thermo Fisher Scientific).

hTopII = target: T1, hTopII (Homo sapiens, UniProt P11388); assay: Detection of hTOP2α cleavage complexes (cleavage assay); type: cell-based; conditions: 100 μM
T1 construct: endogenous in cells
Description: After compound treatments, 1 × 10^6 human cells in 35 mm dish per sample were washed with 1× phosphate-buffered saline (PBS) and lysed with 600 μL of DNAzol (Invitrogen), followed by precipitation with 300 μL of 200 proof ethanol. The nucleic acids were collected, washed with 75% ethanol, resuspended in 200 μL of TE buffer, and then heated at 65 °C for 15 min, followed by shearing with sonication (40% output for 10 s pulse and 10 s rest for four times). The samples were centrifuged at 15 000 rpm for 5 min at 4 °C, and the supernatant were collected. 1 μL of each sample was removed for spectrophotometric measurement of absorbance at 260 nm to quantitate DNA content (NanoDrop). 2 μg of each sample was subjected to slot-blot for immunoblotting using anti-hTOP1 antibody (BD Pharmingen, 556597) and anti-hTOP2α antibody (Santa Cruz biotechnology, 365916).[51]

A2780 = assay: Antiproliferative effect against A2780 (GI50); type: cell-based; conditions: Homo sapiens, 72 hours of treatment, cell count
Description: as §1

OVCA433 = assay: Antiproliferative effect against OVCA433 (GI50); type: cell-based; conditions: Homo sapiens, 72 hours of treatment, cell count
Description: as §1

HCT-116 (colon cancer) = assay: Proliferation of HCT-116 cells (trypan blue count); type: cell-based, human; conditions: 30 μM, 72 hours
Description: as §2

distinct OC cell lines = assay: Anti-OC activity against distinct cell lines (GI50 range); type: cell-based; conditions: Homo sapiens; range over the OC cell lines tested
Description: Once cell adhesion had been promoted, the compounds were added to the culture medium. After 72 hours of treatment, the cells were counted, and the data analyzed by linear regression. Each experiment was carried out three times in triplicate and three separate cell counts were made for each sample.
Afterwards, the concentration range was narrowed to the relative value obtained in the first evaluation in order to obtain an accurate value.

TRBP = target: T2, TRBP (Homo sapiens, UniProt Q15633); assay: Cellular thermal shift assay of TRBP (HEK-293T lysates, Western blot); type: binding; set-up: endogenous in cells; host or cells: HEK-293T
T2 sequence (Q15633 1-366): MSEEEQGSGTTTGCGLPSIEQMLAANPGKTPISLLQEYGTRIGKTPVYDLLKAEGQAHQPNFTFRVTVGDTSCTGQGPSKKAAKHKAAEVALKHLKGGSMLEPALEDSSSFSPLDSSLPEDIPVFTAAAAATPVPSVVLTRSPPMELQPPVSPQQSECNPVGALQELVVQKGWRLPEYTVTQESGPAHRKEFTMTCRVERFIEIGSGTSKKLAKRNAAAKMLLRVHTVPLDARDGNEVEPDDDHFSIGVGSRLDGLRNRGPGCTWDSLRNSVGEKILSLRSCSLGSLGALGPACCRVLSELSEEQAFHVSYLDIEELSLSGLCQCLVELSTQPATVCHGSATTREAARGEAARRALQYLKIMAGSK
Description: HEK-293T cells were harvested in PBS supplemented with protease inhibitor cocktail (complete, EDTA-free, Roche). Cell suspensions were freeze-thawed three times in liquid nitrogen and then centrifuged (20 000g) for 10 min at 4 °C. The lysates were diluted at concentration of 2 μg μL^−1 and then treated with DMSO and 50 μM of 33 or with increasing concentration of 33 for 30 min at 37 °C. After this incubation the lysates were divided into equal parts (50 μL) and heated individually at designated temperatures for 3 min. The heated samples were cooled at room temperature for 3 min and centrifuged (20 000g) for 10 min at 4 °C. The supernatants were transferred to new tubes and analyzed by use for western blotting.
Lysates were loaded on 4–12% bis–tris-acrylamide gel (Life Technologies) and transferred to a nitrocellulose membrane. The membrane was blocked in 5% milk and hybridized with α-TRBP (15753-1-AP Proteintech), α-GAPDH (sc-25778, Santa Cruz Biotechnology), α-c-PARP (Bioss Antibodies, BSM-52408R), α-BCLXL (mAb #2764, Cell Signaling Technology) and α-β-actin (A3854, Sigma) antibodies. All the images were captured using the ChemiDocTM Touch Imaging System (Bio-Rad), and the densitometric analyses were performed using the associated Image Lab software (Bio-Rad).

T1 sequence (P11388 whole entry): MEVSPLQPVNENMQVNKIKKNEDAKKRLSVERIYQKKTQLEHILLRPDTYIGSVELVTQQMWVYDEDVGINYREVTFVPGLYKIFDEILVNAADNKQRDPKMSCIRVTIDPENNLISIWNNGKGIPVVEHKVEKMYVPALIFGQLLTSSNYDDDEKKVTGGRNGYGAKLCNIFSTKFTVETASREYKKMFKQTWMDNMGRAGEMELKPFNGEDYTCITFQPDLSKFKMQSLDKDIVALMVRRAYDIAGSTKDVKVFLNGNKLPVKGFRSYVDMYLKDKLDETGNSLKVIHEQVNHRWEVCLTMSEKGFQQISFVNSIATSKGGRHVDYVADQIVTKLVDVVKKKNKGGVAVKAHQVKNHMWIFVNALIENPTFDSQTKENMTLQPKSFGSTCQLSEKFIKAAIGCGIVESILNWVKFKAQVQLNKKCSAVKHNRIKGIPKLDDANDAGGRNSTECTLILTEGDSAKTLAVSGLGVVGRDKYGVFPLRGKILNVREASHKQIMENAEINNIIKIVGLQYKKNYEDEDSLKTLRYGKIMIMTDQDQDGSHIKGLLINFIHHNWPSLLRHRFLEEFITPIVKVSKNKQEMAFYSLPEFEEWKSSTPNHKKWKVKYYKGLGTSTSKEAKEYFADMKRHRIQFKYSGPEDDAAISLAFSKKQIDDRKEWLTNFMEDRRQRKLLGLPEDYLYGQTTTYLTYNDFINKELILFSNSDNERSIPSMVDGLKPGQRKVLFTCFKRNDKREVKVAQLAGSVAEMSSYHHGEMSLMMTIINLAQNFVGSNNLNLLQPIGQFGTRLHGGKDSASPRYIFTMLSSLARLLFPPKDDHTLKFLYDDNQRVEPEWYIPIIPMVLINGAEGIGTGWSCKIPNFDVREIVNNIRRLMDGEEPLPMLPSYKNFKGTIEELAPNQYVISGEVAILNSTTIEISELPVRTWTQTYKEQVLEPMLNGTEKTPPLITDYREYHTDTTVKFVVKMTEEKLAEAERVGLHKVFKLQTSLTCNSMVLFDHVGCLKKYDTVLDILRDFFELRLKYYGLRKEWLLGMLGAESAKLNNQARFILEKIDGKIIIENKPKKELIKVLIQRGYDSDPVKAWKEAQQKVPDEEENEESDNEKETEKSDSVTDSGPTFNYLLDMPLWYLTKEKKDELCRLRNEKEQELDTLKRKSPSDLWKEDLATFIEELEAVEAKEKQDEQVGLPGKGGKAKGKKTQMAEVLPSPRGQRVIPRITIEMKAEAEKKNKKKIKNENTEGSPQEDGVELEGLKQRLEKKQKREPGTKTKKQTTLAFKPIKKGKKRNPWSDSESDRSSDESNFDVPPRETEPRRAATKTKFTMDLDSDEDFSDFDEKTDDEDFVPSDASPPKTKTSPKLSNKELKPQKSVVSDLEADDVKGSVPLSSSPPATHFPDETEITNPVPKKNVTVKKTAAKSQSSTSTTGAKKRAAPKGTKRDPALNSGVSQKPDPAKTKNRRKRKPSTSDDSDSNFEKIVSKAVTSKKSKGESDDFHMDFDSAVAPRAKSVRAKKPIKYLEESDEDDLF

## O=C(O)c1cn(C2CC2)c2cc(N3CCc4ccccc4C3)c(F)cc2c1=O [Compound 33, 1-Cyclopropyl-7-(3,4-dihydroisoquinolin-2(1H)-yl)-6-fluoro-4-oxo-1,4-dihydroquinoline-3-carboxylic acid]
[1]
  CC50 at 72 h: 143 ± 42.7 µM
A549 (lung carcinoma)
  effect on A549 cell proliferation: significant inhibitory effect on cell proliferation
hTopII
  trapping/inhibition of hTopII (cleavage assay): no inhibition or trapping activity
A2780
  GI50: 18.1 ± 8.25 µM
OVCA433
  GI50: 31 ± 6.75 µM
HCT-116 (colon cancer)
  effect on HCT-116 cell proliferation: significant inhibitory effect on cell proliferation
Distinct OC cell lines
  GI50: 13.5 to 31 µM
TRBP; 50 μM, different temperatures
  thermal shift of TRBP versus DMSO: significant thermal shift
TRBP; increasing concentration, 55 °C
  concentration dependency of TRBP destabilization: destabilization of TRBP in a concentration-dependent manner
